These results are taken from US20080153872A1, “Bis-(Coumarin) Compounds With Anti-Inflammatory Activity” (priority 2005, published 2008).

Experiment [1] relates to IL-10. The experiment can be described thus: Inhibition of IL-10 production by ConA stimulated mouse splenocytes. The format is cell-based. To be noted: 25 μM. The protocol:
(§1) Spleen cell suspension was obtained from BALB/c mice and lymphocytes separated by gradient density centrifugation on Histopaque 1.083 on 400 g for 30 minutes. They were washed once in medium, counted and their number adjusted as 3×10^5/200 μL/well in 96 flat bottomed culture plate in RPMI supplemented with 10% fetal bovine serum. Cells were stimulated on cytokine production by adding concanavalinA (ConA) at 5 μg/mL final concentration. Unstimulated cells were cultured in medium alone. Stock solution was prepared out of testing compounds as 10 mM in DMSO. Final concentrations made in cell culture medium were tested when they had been added together with ConA. After 72 hours incubation period cell culture supernatants were collected. In each sample IL-4, IL-5, IL-10 and IFNγ were detected and quantified using enzyme linked immunosorbent assay (ELISA) specific for pointed cytokines (R&D Systems).
(§2) To calculate results, standard curve was made out of measured OD values for recombinant protein in known concentrations. Cytokine content in unknown samples was calculated out of OD values extrapolated from the standard curve.
(§3) Percentage of inhibition is calculated using formula:
(§4) % Inhibition=(1−cytokine concentration of sample/cytokine concentration of positive control)×100.

In experiment [2] the test system is IL-1β. The experiment can be described thus: Inhibition of IL-1β production by LPS stimulated human peripheral blood mononuclear cells (hPBMCs). The format is cell-based. The note with it: 25 μM. The procedure: Blood was taken from healthy volunteer donor, diluted with the same volume of saline and was separated by gradient density centrifugation on FicollPaque™ Plus on 400 g for 30 minutes. PBMCs were collected, washed in RPMI, counted and number per mL was adjusted.
Collected PBMCs were cultured into 96 well tissue culture plate, flat bottom as 35.000 cells/well/200 uL in RPMI supplemented with 10% fetal bovine serum, prior inactivated on 56° C. for 30 minutes. Cells were stimulated on IL-1 production by adding LPS (serotype 0111:B4, Sigma, cat# L-2630), at final concentration 1 ng/mL. Unstimulated cells were cultured in medium alone. Stock solution was prepared out of testing compounds as 10 mM in DMSO. Final concentrations made in cell culture medium were tested when they had been added together with LPS. […] Negative and positive control samples were prepared in sextaplicates and samples with tested compound concentrations in triplicates. After overnight incubation in humidified atmosphere containing 5% CO2, supernatants were collected.
Harvested cell culture supernatants were quantified for IL-1β content by enzyme linked immunosorbent assay (ELISA).
as §3, §4

The subject of experiment [3] is IFNγ. The experiment can be described thus: Inhibition of IFNγ production by ConA stimulated mouse splenocytes. It counts as cell-based. To be noted: 25 μM. The protocol:
as §1, §2, §3, §4

In experiment [4] the test system is CD1 mice. The experiment can be described thus: PMA induced ear oedema in CD1 mice. The format is in vivo, mouse. To be noted: topical, single dose of 250 or 100 μg/15 μL/ear; statistically significant vs positive control. The protocol: Male CD1 mice (Iffa Credo, France) weighing ˜35-40 g were randomly grouped (n=8 in vehicle treated test group, dexamethasone treated control group as well as in groups treated with compounds to be assayed). Test compounds, dexamethasone as well as vehicle (Trans-phase Delivery System, containing benzyl alcohol 10%, acetone 40% and isopropanol 50%) (all from Kemika, Croatia), were administered topically to the internal surface of the left ear thirty minutes prior to administration of phorbol 12-myristate 13-acetate (PMA) (Alexis biochemicals, USA). Test compounds were administered at a single dose of 250 or 100 μg/15 μL/ear and dexamethasone at a single dose of 50 μg/15 μL/ear. Thirty minutes later, 0.01% PMA solution in acetone was applied topically to the same area of each animal in a volume of 12 μL/ear. During the treatment and challenge, animals were anaesthetized by using inhalation anaesthesia. Six hours after the challenge, animals were euthanized by asphyxiation in 100% CO2 atmosphere. For assessing the auricular oedema, 8 mm discs were cut out of left and right auricular pinna and weighed. The degree of oedema was calculated by subtracting the weight of 8 mm disc of the untreated ear from that of the treated contralateral ear.

Experiment [5] has as its system IL-5. The experiment can be described thus: Inhibition of IL-5 production by ConA stimulated mouse splenocytes. The format is cell-based. To be noted: 25 μM. The protocol:
as §1, §2, §3, §4

Experiment [6] concerns IL-4. The experiment can be described thus: Inhibition of IL-4 production by ConA stimulated mouse splenocytes. The format is cell-based. To be noted: 25 μM. The procedure: as §1, §2, §3, §4
Experiment [7] relates to Balb/C mice. Nature of the experiment: Ovalbumin induced pulmonary eosinophilia in mice. It counts as in vivo, mouse. To be noted: OVA sensitized and challenged mice; i.n., i.p. or per os. The protocol: Male Balb/C mice with a body weight of 20-25 g are randomly divided into groups, and sensitized by an i.p. injection of ovalbumin (OVA, Sigma) on day zero and day fourteen. On the twentieth day, the mice are subjected to a challenge test by i.n. (intranasal) application of OVA (positive control or test groups) or PBS (negative control). The compounds are administered daily i.n., i.p. or per os in different doses starting 2 days before the challenge and up to the completion of the test. Compounds are administered as suspension either in PBS, methyl cellulose or carboxymethyl cellulose with addition od DMSO (up to 5% of the total volume). 48 hours after i.n. application of OVA, the animals are then anaesthetized to obtain bronchoalveolar lavage fluid (BALF), which is used to determine total protein concentration as well as concentrations of cytokines such as IL-1β and TNF-α, absolute number of cells, and percentage of eosinophils in BALF. Bronchoalveolar lavage (BAL) is performed by infusing 1 mL of PBS divided into 3 separate volumes (0.4, 0.3 and 0.3 ml) through trachea into the lungs. The fluid is immediately withdrawn and the cell suspension stored into previously prepared 1.5 mL Eppendorf tube. Bronchoalveolar lavage fluid (BALF) is then centrifuged at […] for 5 min (4° C.). Cells are resuspended in 700 μL of PBS. To prepare cytospins, 320 μL of suspension is centrifuged at 250 rpm for 10 min (Cytospin-3, Shandon Instruments). Cells are stained with Dif-Quik (Dade Behring) to determine percentage of eosinophils by counting of at least 100 cells. The remaining resuspended cells are used for total cell count in BALF analysis (Sysmex SF 3000). Finally, lungs are sampled and stored into 10% formalin for pathohistological evaluation of eosinophil and mononuclear infiltrate. Accumulation of eosinophils and mononuclear cells in peribronchial (PB) and perivascular (PV) lung tissue areas and in alveolar spaces is monitored.
Results can be expressed as (I) decrease of absolute cell number per mL in BALF, (II) decrease of number of eosinophils per mL in BALF, (III) reduction of relative number (percentage) of eosinophils in BALF, (IV) reduction of cytokine concentrations in BALF, as well as (V) suppression of accumulation of eosinophils and mononuclear cells in peribronchial (PB) and perivascular (PV) lung tissue areas and in alveolar spaces by pathohistological scoring of treated animals compared to positive control (OVA stimulated, but untreated animals).
Fluticasone and beclomethasone are used as standard anti-inflammatory substances, and compared for ability to inhibit eosinophilia to the negative and positive controls.

Experiment [8] deals with Balb/cJ mice. The experiment can be described thus: LPS induced pulmonary neutrophilia in mice. The format is in vivo, mouse. To be noted: LPS challenged mice; i.n., i.p. or per os. The procedure: Male Balb/cJ mice (Iffa Credo, France) weighing ˜25 g are randomly grouped into a negative control group, positive control group and groups treated with compounds to be assayed). Test compounds, as well as vehicle (DMSO+0.5% methyl-cellulose) (all from Sigma), are administered i.n., ip. or per os two hours prior to administration of lipopolysaccharide (LPS) (E. coli, serotype 0111:B4, Sigma) or two hours prior and two hours after administration of LPS. Test compounds are administered at a single dose (two hours prior the challenge) or divided into two doses (two hours prior and two hours after the challenge). LPS solution in phosphate buffered saline (PBS) (Sigma) is administered intranasally in volume of 60 μL at concentration of 33,33 μg/mL, to all experimental groups except the negative control group, which received the same volume (60 μL) of vehicle PBS. During the challenge, animals were anaesthetized by using intraperitoneal anaesthesia. Animals are euthanized by i.p. anesthesia overdose approximately 24 hours after application of LPS to obtain bronchoalveolar lavage fluid (BALF), which is used to determine total protein concentration as well as concentrations of cytokines, such as IL-1β and TNF-α, absolute number of cells, and percentage of neutrophils in BALF. Bronchoalveolar lavage (BAL) is performed by infusing 1 mL of PBS divided into 3 separate volumes (0.4, 0.3 and 0.3 ml) through trachea into the lungs. The fluid is immediately withdrawn and the cell suspension stored into previously prepared 1.5 mL Eppendorf tube. Bronchoalveolar lavage fluid (BALF) is then centrifuged at […] for 5 min (4° C.). Cells are resuspended in 700 μL of PBS. To prepare cytospins, 320 μL of suspension is centrifuged at 250 rpm for 10 min (Cytospin-3, Shandon Instruments). Cells are stained with Dif-Quik (Dade Behring) to determine percentage of neutrophils by counting of at least 200 cells. The remaining resuspended cells are used for total cell count in BALF analysis (Sysmex SF 3000). […] Accumulation of granulocytes and mononuclear cells in peribronclhial (PB) and perivascular (PV) lung tissue areas and alveolar spaces is monitored.
Results can be expressed as (I) decrease of absolute cell number per mL in BALF, (II) decrease of number of neutrophils per mL in BALF, (III) reduction of relative number (percentage) of neutrophils in BALF, (IV) reduction of cytokine concentrations in BALF, as well as (V) suppression of accumulation of granulocytes and mononuclear cells in peribronchial (PB) and perivascular (PV) lung tissue areas and in alveolar spaces by pathohistological scoring of treated animals compared to positive control (LPS stimulated, but untreated animals).

In experiment [9] the test system is RBL-2H3 cell line. Nature of the experiment: IgE-induced RBL-2H3 mast cell degranulation (Fcε receptor type I). It counts as cell-based, rat. To be noted: concentrations from 200-50 μM; RBL-2H3 cells; stimulus not specified. The protocol: RBL-2H3 cell line of rat basophilic leukaemia (ATCC) was used for the investigation of inhibition of degranulation induced by the activation of Fcε receptor type I or calcium ionophors. RBL-2H3 cell line was cultivated in DMEM medium (Invitrogen Cat. No. 31966-021) with 10% of phoetal calf serum (Invitrogen Corporation) at 37° C., 5% CO2, 90% relative humidity. Cells were seeded in the same medium into 24-well plates, 50000 per well, and left to reach 80-90% of confluence.
Dilutions of compounds were prepared in DMEM medium without phenol red (Invitrogen Corporation) in concentrations from 200 μM to 1 μM. The medium was removed from the cells and the diluted of compounds were added to the wells with the exception of the positive and the negative control where pure DMEM medium was added. Subsequently,
1. for the IgE-induced degranulation by Fcs receptor type I, a solution of SPE-1 (dinitrophenyl specific IgE) antibodies (Sigma) and dinitrophenylalbumin (Sigma), both in a final concentration of 0.5 μg/mL,
In the case of the negative control wells, pure DMEM medium was added. The cells were incubated for one hour at 37° C., 5% CO2, and 90% relative humidity. Each dilution as well as the positive and the negative controls were performed in triplicate. The supernatant (50 μL) was transferred in duplicate to a 96-well plate. […] The absorbance was measured at […]. […]

In the case of `CCc1ccc2oc(=O)c(C(c3ccc(O)cc3)c3c(O)c4cc(CC)ccc4oc3=O)c(O)c2c1` [Example 244], the “inhibition of IL-10 production” value in experiment [1] is “significantly inhibited”. In addition, the “inhibition of IL-1β production” value in experiment [2] is on record as “significantly inhibited”. In experiment [3], the “inhibition of IFNγ production” value is on record as “significantly inhibited”. The “suppression of ear oedema” value in experiment [4] is recorded as “considered active”. The “inhibition of IL-5 production” value in [5] is given as “significantly inhibited”. Further, in experiment [6], the “inhibition of IL-4 production” value was “significantly inhibited”.

Regarding `Cc1cc2oc(=O)c(C(c3c(O)c4cc(C)c(C)cc4oc3=O)C(C)O)c(O)c2cc1C` (stereo not shown) [Example 363], the “suppression of ear oedema” value in [4] is on record as “considered active”. In experiment [7], the “reduction of percentage of eosinophils and/or their total number in BALF and/or by histological scoring” value is recorded as “statistically significant reduction”. In experiment [8], the “reduction of percentage of neutrophils and/or their total number in BALF and/or by histological scoring” value was “statistically significant reduction”.

Regarding `CN1CCC(=C2c3ccccc3CC(=O)c3sccc32)CC1` [Ketotifen, ketotifen], the “inhibition of degranulation (standard)” value in experiment [9] is listed as “significantly inhibits degranulation”.
